Values of other authors as cited in patent US12673009B2, “Dental material” (King's College London, priority 2020, dated 2026).

What was measured:
[1] = Tylkowski et al., 2013

For `[Li]` [lithium], the “safe therapeutic range of blood levels for patients on lithium therapies” value is listed as 4.2-8.3 ppm and the “lithium concentration reported to be toxic” value [1] is listed as ~700 ppm.
